Results reported in patent US4859773A, “Preparation of 1,8-bridged 4-quinoline-3-carboxylic acids” (Bayer Aktiengesellschaft, priority 1985, dated 1989).
Values after ≈ are worked out from the molar mass of the structure shown.

Tests used:
Assay in all cases: MIC, agar dilution test (Isosensitest medium), Denley multipoint inoculator
Format in all cases: cell-based
[1] = test system: E. coli T 7; settings: Escherichia coli, T7
Text: (§1) Agar dilution test (Isosensitest medium)
(§2) Denley multipoint inoculator

[2] = test system: Klebsiella 8085
Text: as §1, §2

[3] = test system: E. coli Neumann; settings: Escherichia coli
Text: as §1, §2

[4] = test system: E. coli A 261; settings: Escherichia coli, A261
Text: as §1, §2

Compound: Cc1c(F)cc2c(=O)c(C(=O)O)cn3c2c1OCC3 [Example 61]
- MIC [1]: 0.5 µg/mL (≈ 1.9 µM)
- MIC [2]: 0.125 µg/mL (≈ 0.475 µM)
- MIC [3]: 0.125 µg/mL (≈ 0.475 µM)
- MIC [4]: 0.5 µg/mL (≈ 1.9 µM)
